Assay results: US20220170028A1, “NOVEL INTERLEUKIN-2 VARIANTS AND BIFUNCTIONAL FUSION MOLECULES THEREOF” (Cugene Inc, priority 2019, published 2022)
Read-outs that look alike come from different tables or passages of the source.

Assays:
[1] = system: CD4+/Foxp3+/CD25+ Treg, CD4+/Foxp3-/CD25+ Teff and CD4+/Foxp3-/CD25- naive T cells; experiment: STAT5 phosphorylation in three CD4+ T cell subsets (Treg, CD4 effector, CD4 naive), human PBMC; type: cell-based
Description: In addition to being assessed for their ability to differentially stimulate Stat5 phosphorylation in CD4 positive Treg (CD4+/Foxp3+/CD25^high) versus Tconv (CD4+/Foxp3−/CD25^low) cells, two variants, P-0511 and P-0512, were further assayed for their ability to stimulate other effector T and NK cells, including CD4 positive Teff (CD4+/Foxp3-/CD25+), CD8 cytotoxic T effector and NK cells in comparison to wild-type IL-2 (P-0250) and three IL-2 benchmark molecules containing V91K, N88R, N88D respectively.
After human PBMC Cells were treated with serial dilutions of test compounds, fixed and permeabilized, washed, and stained with a mixture of anti-CD25-PE, anti-FOXP3-APC, anti-pSTAT5-FITC, and anti-CD4-PerCP-Cy5.5 antibodies, the flow cytometry analysis was gated into CD4+/Foxp3+/CD25+, CD4+/Foxp3−/CD25+, CD4+/Foxp3−/CD25− groups for the Treg, CD4 effector, and CD4 naive T cell subsets, respectively. Data are expressed as a percent of pStat5 positive cells in gated population and illustrated in FIG. 9.

[2] = Transient expression level of IL-2 Fc fusion constructs in HEK-293F cells; conditions: Isoleucine-125 constructs
Experimental: The constructs were produced by co-transfecting HEK293-F cells growing in suspension with the mammalian expression vectors using polyethylenimine (PEI, 25,000 MW linear, Polysciences). If there were two or more expression vectors, the vectors were transfected in a 1:1 ratio. For transfection, HEK293 cells were cultivated in serum free FreeStyle™ 293 Expression Medium (ThermoFisher). For production in 1000 ml shaking flasks (working volume 330 mL), HEK293 cells were seeded at a density of 0.8×10^6 cells/ml 24 hours before transfection. A total of 330 μg of DNA expression vectors were mixed with 16.7 ml Opti-mem Medium (ThermoFisher). After addition of 0.33 mg PEI diluted in 16.7 ml Opti-mem Medium, the mixture was vortexed for 15 sec and subsequently incubated for 10 min at room temperature. The DNA/PEI solution was then added to the cells and incubated at 37° C. in an incubator with 8% CO2. Sodium butyrate (Millipore Sigma) was added to the cells at day 4 at a final concentration of […] to help sustain protein expression. After 6 days cultivation, supernatant was collected for purification by centrifugation for 20 min at 2200 rpm. The solution was sterile filtered (0.22 μm filter, Corning). The secreted protein was purified from cell culture supernatants using Protein A affinity chromatography.
S125I substitution was thus introduced into a number of IL-2 variant Fc fusion molecules. The constructs harboring Ile-125 substitution in IL-2 were expressed using the same vector and in the same culturing conditions as their Ser-125 counterparts and purified using MabSelectSure. The expression level in mg/L and purity assessed by SEC chromatography in aggregation % of exemplary molecules are summarized in Table 6. The two molecules in the same row of Table 6 share the same other amino acid substitution(s) and differ only at residue 125 with either serine or isoleucine. As an example, the SEC chromatogram and SDS-PAGE pictures of P-0447 (SEQ ID NO: 173) and its Ile-125 counterpart P-0511 (SEQ ID NO: 213) were further illustrated in FIGS. 1D and 1E.

[3] = system: CD4+ Tconv cells, CD8 T cells and NK cells; experiment: Effector T cell and NK cell proliferation and expansion in mice after a single subcutaneous injection (Example 9); type: in vivo, mouse; conditions: 0.3 mg/kg single s.c., C57/BL6 mice
Experimental: (§1) IL-2 variant Fc fusion proteins were administered to mice and their ability to preferentially proliferate and expand regulatory T cells (CD4+CD25+FoxP3+ T cells) over effector T cells and NK cells were determined in vivo.
(§2) Female C57/BL6 mice (7-week old) were received from Charles River Laboratory and acclimated in house for at least 7 days before the study. Vehicle (PBS), 0.3 mg/kg of each test compounds, or IL-2 benchmark compounds were subcutaneously administered to mice on day 0. Peripheral blood samples were collected into heparin-treated tubes on days 3, 5 and 7 post-treatment. Each group contained 6 mice and baseline blood was collected 2 days prior to the treatment (day −2). After red blood cell lysis, total viable mononuclear blood cells were counted by trypan blue dead cell exclusion method and proceeded to intracellular staining for immune cell phenotype and Ki67 proliferation markers using flow cytometric analysis. Cells were stained separately with two panels of antibodies as listed: 1) anti-mouse Foxp3-FITC, Ki67-PE, anti-mouse CD25-APC and anti-mouse CD4-Percpcy5.5 (1:50 dilution) for CD4+T-regulatory cells (Treg); 2) anti-mouse CD3-FITC, Ki67-PE, anti-mouse CD335-APC and anti-mouse CD8-Percpcy5.5 (1:50 dilution) for CD8+T and NK cells.

Treg cells [4] = experiment: Treg proliferation and expansion in mice after a single subcutaneous injection (Example 9); type: in vivo, mouse; conditions: 0.3 mg/kg single s.c., C57/BL6 mice
Experimental: as §1, §2

Treg cells [5] = experiment: Treg pharmacodynamics in mice after repeated administration Q3D (Example 11); type: in vivo, mouse; conditions: 0.3 mg/kg s.c.
Experimental: Female Balb/C mice (7-week old) were acclimated in house for 5-7 days before the study. Vehicle (PBS), 0.3 mg/kg of P-0511, P-0512, P-0531, or Benchmark-1 compound were subcutaneously administered to mice (n=5/group) on days 0, 3, and 6. On days 3 and 9, three days after the first injection and multiple (3) injections, respectively, peripheral blood was collected. Based on earlier in vivo experiments, Treg cell activation, proliferation, and expansion were expected to peak on day 3, and thus three days post injection was selected for data collection and analysis. Changes in blood lymphocyte activation, proliferation, and expansion were measured by flow cytometry. P-0531 is the S125I equivalent of the wild type IL-2 fusion protein. The Benchmark-1 contains V91K mutation.

NK cells = experiment: NK cell proliferation, CFSE dilution, human PBMC; type: cell-based; conditions: 5 or 7 days incubation
Experimental: Further, P-0511 and P-0512 were tested for their ability to stimulate NK and CD8+ T cells proliferation in comparison with the wild type and benchmark molecules. Intracellular fluorescent label carboxyfluorescein diacetate succinimidyl ester (CFSE) method was utilized. Briefly, human PBMC (1×10^5 cells/well) were labeled with CFSE, plated onto 96-well plates, and incubated with increasing concentrations of different IL-2 compounds. Cells were then harvested after 5 or 7 days of incubation and stained with either anti-CD56-APC antibody for NK cells or anti-CD8-APC antibody for CD8+ T cells; and analyzed by flow cytometry. Data are expressed as a percent of divided cells and illustrated in FIG. 10A for CD8+ T cell proliferation and FIG. 10B for NK cell proliferation.

## P-0511: IL-2 L19H/S125I/Q126E Fc fusion, SEQ ID NO: 213
[1]
  pSTAT5 activity profile in Treg, Teff and naive CD4 T cell subsets (in words): preferential activation of Treg over Teff
[1]; listed as P-511
  pSTAT5 activity profile in Treg, Teff and naive CD4 T cell subsets (in words): superior to both Benchmark-2 and -3
[2]
  Expression: 26.6 mg/L
[3]
  Ki67 stimulation on CD8 T cells and NK cells in vivo (in words): mild Ki67 stimulation
  expansion of CD4+ Tconv cells, CD8 T cells or NK cells in vivo: No significant expansion
Treg cells [4]; all measured time points
  Treg/Tconv ratio (Ki67 stimulation and cell counts): most beneficial Treg/Tconv ratio
Treg cells [4]; days 3, 5, 7
  stimulation of Treg cell proliferation and expansion in vivo (in words): stronger in vivo efficacy
Treg cells [5]; after three consecutive Q3D treatments
  % Treg over total CD4 T cells or over total lymphocytes: sustained at significantly high levels
Treg cells [5]; repeated dosing Q3D
  Treg cell counts, fold changes relative to PBS and Treg/Tconv ratio: superior capabilities to sustain Treg pool and maintain Treg selectivity
NK cells
  potency in stimulating NK cell proliferation (in words): on par with Benchmark-3
